One assay has as its target 6×His-CRBN-DDB1 protein (Homo sapiens (Human), UniProt Q96SW2). Kind of assay: CRBN fluorescence polarization assay. The following applies: cereblon binding, class symbols; read-out: CRBN FP IC50. It counts as binding. The procedure:
6×His-CRBN-DDB1 protein (200 nM) and Cy5-O-Len probe (30 nM) were combined in 20 mM HEPES pH 7, 150 mM NaCl, 0.005% Tween-20 assay buffer. […] The plates were incubated in the dark for 1 hour at room temperature and then read on an Envision plate reader (PerkinElmer, Massachusetts, USA).
In general terms: Fluorescence polarisation rises when a labelled molecule tumbles more slowly, as on binding a larger partner.

Another assay addresses GSPT1 HiBiT tag protein (Homo sapiens (Human), UniProt P15170+Q96SW2). The assay is described as follows: hGSPT1 HiBiT assay. It counts as cell-based. To be noted: HEK293 hGSPT1 HiBiT cells, 4 hrs incubation; read-out: GSPT1 HiBit EC50. The procedure: hGSPT1 HiBiT cell line. HEK293_hGSPT1_HiBiT tagged cells were generated using CRISPR-Cas12a technology. Briefly, ˜400,000 HEK293 cells were transiently co-transfecting with precomplexed ribonuclear proteins (RNPs) consisting of […] of crRNA (IDT), 62 pmol of Cas12a protein (IDT), 3 ug of ssODN donor (IDT; AltR™ modifications), 78 pmol of electroporation enhancer (IDT), and 200 ng of pMaxGFP (Lonza). The transfection was performed via nucleofection (Lonza, 4D-Nucleofector™ X-unit) using solution P3 and program CM-130 in a small (20 ul) cuvette according to the manufacturer's recommended protocol. Five days post-nucleofection, cells were single cell sorted for GFP+(transfected) cells by FACs in 96-well plates and clonally selected. Clones were screened and verified for the desired modification via targeted deep sequencing using gene specific primers with partial Illumina adapter overhangs as previously described.^58 In brief, clonal cell pellets were harvested, lysed and used to generate gene specific amplicons with partial Illumina adapters in PCR #1. Amplicons were indexed in PCR #2 and pooled with other targeted amplicons for other loci to create sequence diversity. Additionally, 10% PhiX Sequencing Control V3 (Illumina) was added to the pooled amplicon library prior to running the sample on an Miseq Sequencer System (Illumina) to generate paired 2×250 bp reads. […] Editing construct sequences and screening primers are listed below in Table 4.
hGSPT1 HiBiT assay. […] After 4 hrs incubation, the level of GSPT1 HiBiT tag protein was evaluated using Nano-Glo® HiBiT Lytic Detection System (Promega) according to the manufacturer's instruction.
Background: The HiBiT peptide binds its large partner to form an active luciferase.

Sequence of 6×His-CRBN-DDB1 protein (Q96SW2 whole entry): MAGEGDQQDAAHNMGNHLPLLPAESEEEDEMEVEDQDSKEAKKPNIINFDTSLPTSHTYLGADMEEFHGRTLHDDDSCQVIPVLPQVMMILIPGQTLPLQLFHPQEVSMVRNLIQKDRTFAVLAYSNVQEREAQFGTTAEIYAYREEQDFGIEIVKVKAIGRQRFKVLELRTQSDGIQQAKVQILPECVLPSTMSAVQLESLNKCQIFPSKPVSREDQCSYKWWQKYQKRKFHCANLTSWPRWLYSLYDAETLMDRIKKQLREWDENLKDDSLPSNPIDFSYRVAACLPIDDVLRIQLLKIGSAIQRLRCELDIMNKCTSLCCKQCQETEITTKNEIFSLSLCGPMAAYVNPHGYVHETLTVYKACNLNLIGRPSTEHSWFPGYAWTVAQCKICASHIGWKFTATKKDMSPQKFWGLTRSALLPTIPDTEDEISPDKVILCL
Sequence of 6×His-CRBN-DDB1 protein (Q16531 whole entry partner): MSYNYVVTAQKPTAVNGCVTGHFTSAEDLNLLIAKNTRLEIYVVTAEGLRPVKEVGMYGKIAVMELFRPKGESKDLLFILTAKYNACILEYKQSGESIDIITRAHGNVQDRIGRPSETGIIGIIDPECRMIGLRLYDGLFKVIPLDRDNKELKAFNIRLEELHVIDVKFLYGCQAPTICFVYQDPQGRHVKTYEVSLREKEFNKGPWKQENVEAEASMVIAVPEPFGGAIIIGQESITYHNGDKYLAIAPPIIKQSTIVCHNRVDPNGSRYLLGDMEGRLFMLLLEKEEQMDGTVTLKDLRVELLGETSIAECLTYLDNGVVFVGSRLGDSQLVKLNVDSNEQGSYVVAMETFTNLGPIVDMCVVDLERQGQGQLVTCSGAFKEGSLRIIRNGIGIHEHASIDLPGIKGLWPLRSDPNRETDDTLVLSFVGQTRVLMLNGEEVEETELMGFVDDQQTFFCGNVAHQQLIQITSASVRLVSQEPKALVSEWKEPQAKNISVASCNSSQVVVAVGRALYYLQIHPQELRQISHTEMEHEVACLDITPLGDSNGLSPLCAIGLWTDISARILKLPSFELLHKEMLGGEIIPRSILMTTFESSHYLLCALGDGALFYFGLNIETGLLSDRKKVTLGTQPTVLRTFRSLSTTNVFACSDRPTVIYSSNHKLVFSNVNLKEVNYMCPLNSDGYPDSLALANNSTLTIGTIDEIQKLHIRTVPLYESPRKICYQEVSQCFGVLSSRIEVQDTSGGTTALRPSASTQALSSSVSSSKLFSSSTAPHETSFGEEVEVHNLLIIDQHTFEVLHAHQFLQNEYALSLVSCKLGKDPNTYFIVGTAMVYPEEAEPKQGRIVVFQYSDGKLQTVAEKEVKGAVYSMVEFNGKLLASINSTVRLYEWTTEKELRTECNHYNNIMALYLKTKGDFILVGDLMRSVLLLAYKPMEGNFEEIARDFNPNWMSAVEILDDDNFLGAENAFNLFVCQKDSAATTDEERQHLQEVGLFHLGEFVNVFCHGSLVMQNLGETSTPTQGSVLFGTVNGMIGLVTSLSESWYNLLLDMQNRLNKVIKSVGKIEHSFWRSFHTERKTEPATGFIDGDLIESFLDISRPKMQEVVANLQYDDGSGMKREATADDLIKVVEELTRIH
Sequence of GSPT1 HiBiT tag protein (P15170 whole entry): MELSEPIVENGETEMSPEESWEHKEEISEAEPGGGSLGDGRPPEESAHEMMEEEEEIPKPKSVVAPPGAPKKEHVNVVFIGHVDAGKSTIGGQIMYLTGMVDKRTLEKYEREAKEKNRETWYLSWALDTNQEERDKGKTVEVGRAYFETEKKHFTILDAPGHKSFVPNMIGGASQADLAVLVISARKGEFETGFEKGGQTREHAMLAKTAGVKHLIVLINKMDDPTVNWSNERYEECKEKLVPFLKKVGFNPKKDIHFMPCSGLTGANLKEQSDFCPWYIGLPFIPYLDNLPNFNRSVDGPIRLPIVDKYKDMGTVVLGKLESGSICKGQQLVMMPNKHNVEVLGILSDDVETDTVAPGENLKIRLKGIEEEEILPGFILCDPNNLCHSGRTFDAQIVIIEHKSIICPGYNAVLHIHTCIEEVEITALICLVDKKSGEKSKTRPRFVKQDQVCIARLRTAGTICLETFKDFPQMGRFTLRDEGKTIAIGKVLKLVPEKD
Sequence of GSPT1 HiBiT tag protein (Q96SW2 whole entry): as the sequence (Q96SW2 whole entry) above
Sequence of GSPT1 HiBiT tag protein (Q16531 whole entry partner): as the sequence (Q16531 whole entry partner) above

By IC50 is commonly meant the concentration needed to halve the response being measured. In the case of `O=C1CCC(N2C(=O)c3ccc(NS(=O)(=O)c4cccc(C(F)(F)F)c4)cc3C2=O)C(=O)N1` (centres unmarked) [Compound 4, N-(2-(2,6-dioxopiperidin-3-yl)-1,3-dioxoisoindolin-5-yl)-3-(trifluoromethyl)benzenesulfonamide], at 6×His-CRBN-DDB1 protein, the IC50 is under 1000 nM. Further, the DC50 at GSPT1 HiBiT tag protein is over 10000 nM. `O=C1CCC(N2C(=O)c3ccc(NS(=O)(=O)c4cccs4)cc3C2=O)C(=O)N1` (centres unmarked) [Compound 18, N-(2-(2,6-dioxopiperidin-3-yl)-1,3-dioxoisoindolin-5-yl)thiophene-2-sulfonamide]: the IC50 at 6×His-CRBN-DDB1 protein is under 1000 nM. In addition, at GSPT1 HiBiT tag protein, the DC50 is over 10000 nM. On the same counts, the results for `O=C1CCC(N2C(=O)c3ccc(NS(=O)(=O)c4ccccc4-c4ccccc4)cc3C2=O)C(=O)N1` (centres unmarked) [Compound 81, N-(2-(2,6-dioxopiperidin-3-yl)-1,3-dioxoisoindolin-5-yl)-[1,1′-biphenyl]-2-sulfonamide] are under 1000 nM and over 10000 nM. In the case of `O=C1CCC(N2C(=O)c3ccc(NS(=O)(=O)c4ccccc4C(F)(F)F)cc3C2=O)C(=O)N1` (centres unmarked) [Compound 99, N-(2-(2,6-dioxopiperidin-3-yl)-1,3-dioxoisoindolin-5-yl)-2-(trifluoromethyl)benzenesulfonamide], on 6×His-CRBN-DDB1 protein, the IC50 was under 1000 nM. At GSPT1 HiBiT tag protein, the DC50 is under 1000 nM. As to `Cc1ccc(F)c(S(=O)(=O)Nc2ccc3c(c2)C(=O)N(C2CCC(=O)NC2=O)C3=O)c1` (centres unmarked) [Compound 10, N-(2-(2,6-dioxopiperidin-3-yl)-1,3-dioxoisoindolin-5-yl)-2-fluoro-5-methylbenzenesulfonamide], the IC50 on 6×His-CRBN-DDB1 protein was under 1000 nM. Also, the DC50 on GSPT1 HiBiT tag protein is over 10000 nM.

On to `O=C1CCC(N2C(=O)c3ccc(NS(=O)(=O)c4ccsc4)cc3C2=O)C(=O)N1` (centres unmarked) [Compound 83, N-(2-(2,6-dioxopiperidin-3-yl)-1,3-dioxoisoindolin-5-yl)thiophene-3-sulfonamide], for which the IC50 at 6×His-CRBN-DDB1 protein was under 1000 nM. Also, the DC50 at GSPT1 HiBiT tag protein was over 10000 nM. As for `Cc1ccccc1CS(=O)(=O)Nc1ccc2c(c1)C(=O)N(C1CCC(=O)NC1=O)C2=O` (centres unmarked) [Compound 90, N-(2-(2,6-dioxopiperidin-3-yl)-1,3-dioxoisoindolin-5-yl)-1-(o-tolyt)methanesulfonamide], at 6×His-CRBN-DDB1 protein, the IC50 lay within 1000 to 10000 nM. For the same compound, the DC50 on GSPT1 HiBiT tag protein is over 10000 nM.

As for `O=C1CCC(N2C(=O)c3ccc(NS(=O)(=O)c4ccc(F)cc4)cc3C2=O)C(=O)N1` (centres unmarked) [Compound 12, N-(2-(2,6-dioxopiperidin-3-yl)-1,3-dioxoisoindolin-5-yl)-4-fluorobenzenesulfonamide], the IC50 at 6×His-CRBN-DDB1 protein was under 1000 nM. In addition, on GSPT1 HiBiT tag protein, the DC50 is over 10000 nM. As for `O=C1CCC(N2C(=O)c3ccc(NS(=O)(=O)c4ccc(F)c(Cl)c4)cc3C2=O)C(=O)N1` (centres unmarked) [Compound 17, 3-chloro-N-(2-(2,6-dioxopiperidin-3-yl)-1,3-dioxoisoindolin-5-yl)-4-fluorobenzenesulfonamide], the IC50 at 6×His-CRBN-DDB1 protein was under 1000 nM. Further, the DC50 on GSPT1 HiBiT tag protein was over 10000 nM.

With `O=C1CCC(N2C(=O)c3ccc(NS(=O)(=O)c4ccc(OC(F)(F)F)cc4)cc3C2=O)C(=O)N1` (centres unmarked) [Compound 96], the IC50 on 6×His-CRBN-DDB1 protein was under 1000 nM. In addition, the DC50 at GSPT1 HiBiT tag protein was over 10000 nM. Consider `O=C1CCC(N2C(=O)c3ccc(NS(=O)(=O)c4ccccc4F)cc3C2=O)C(=O)N1` (centres unmarked) [Compound 82, N-(2-(2,6-dioxopiperidin-3-yl)-1,3-dioxoisoindolin-5-yl)-2-fluorobenzenesulfonamide], for which the IC50 at 6×His-CRBN-DDB1 protein was under 1000 nM. In addition, the DC50 on GSPT1 HiBiT tag protein was over 10000 nM. On to `O=C1CCC(N2C(=O)c3ccc(NS(=O)(=O)c4ccc(C5CCCCC5)cc4)cc3C2=O)C(=O)N1` (centres unmarked) [Compound 80, 4-cyclohexyl-N-(2-(2,6-dioxopiperidin-3-yl)-1,3-dioxoisoindolin-5-yl)benzenesulfonamide], for which the IC50 on 6×His-CRBN-DDB1 protein was in the range of 1000 to 10000 nM. With `O=C1CCC(N2C(=O)c3ccc(NS(=O)(=O)c4ccc(Cl)c(C(F)(F)F)c4)cc3C2=O)C(=O)N1` (centres unmarked) [Compound 70, 4-chloro-N-(2-(2,6-dioxopiperidin-3-yl)-1,3-dioxoisoindolin-5-yl)-3-(trifluoromethyl)benzenesulfonamide], the DC50 on GSPT1 HiBiT tag protein was over 10000 nM.

`O=C1CCC(N2C(=O)c3ccc(NS(=O)(=O)c4cc(Cl)cc(Cl)c4)cc3C2=O)C(=O)N1` (centres unmarked) [Compound 6, 3,5-dichloro-N-(2-(2,6-dioxopiperidin-3-yl)-1,3-dioxoisoindolin-5-yl)benzenesulfonamide]: the IC50 at 6×His-CRBN-DDB1 protein was under 1000 nM. On to `O=C1CCC(N2Cc3ccc(NS(=O)(=O)c4ccc(F)c(Cl)c4)cc3C2=O)C(=O)N1` (centres unmarked) [Compound 31, 3-chloro-N-(2-(2,6-dioxopiperidin-3-yl)-3-oxoisoindolin-5-yl)-4-fluorobenzenesulfonamide], for which the IC50 on 6×His-CRBN-DDB1 protein was in the range of 1000 to 10000 nM. Take `O=C1CCC(N2C(=O)c3ccc(NS(=O)(=O)c4ccc(C(F)(F)F)cc4)cc3C2=O)C(=O)N1` (centres unmarked) [Compound 8, N-(2-(2,6-dioxopiperidin-3-yl)-1,3-dioxoisoindolin-5-yl)-4-(trifluoromethyl)benzenesulfonamide]: on GSPT1 HiBiT tag protein, the DC50 was over 10000 nM. For the compound `O=C1CCC(N2C(=O)c3ccc(NS(=O)(=O)c4cccc(Cl)c4Cl)cc3C2=O)C(=O)N1` (centres unmarked) [Compound 88, 2,3-dichloro-N-(2-(2,6-dioxopiperidin-3-yl)-1,3-dioxoisoindolin-5-yl)benzenesulfonamide], the IC50 at 6×His-CRBN-DDB1 protein is under 1000 nM. On the same count and under the same terms, the result for `Cc1c(Cl)cccc1S(=O)(=O)Nc1ccc2c(c1)C(=O)N(C1CCC(=O)NC1=O)C2` (centres unmarked) [Compound 36, 3-chloro-N-(2-(2,6-dioxopiperidin-3-yl)-3-oxoisoindolin-5-yl)-2-methylbenzenesulfonamide] reads under 1000 nM.

As for `COc1cccc(S(=O)(=O)Nc2ccc3c(c2)CN(C2CCC(=O)NC2=O)C3=O)c1` (centres unmarked) [Compound 47, N-(2-(2,6-dioxopiperidin-3-yl)-1-oxoisoindolin-5-yl)-3-methoxybenzenesulfonamide], the IC50 at 6×His-CRBN-DDB1 protein was under 1000 nM. Consider `Cc1ccccc1S(=O)(=O)Nc1ccc2c(c1)CN(C1CCC(=O)NC1=O)C2=O` (centres unmarked) [Compound 54, N-(2-(2,6-dioxopiperidin-3-yl)-1-oxoisoindolin-5-yl)-2-methylbenzenesulfonamide], for which the IC50 at 6×His-CRBN-DDB1 protein is under 1000 nM. On to `O=C1CCC(N2Cc3ccc(NS(=O)(=O)c4ccc(F)cc4)cc3C2=O)C(=O)N1` (centres unmarked) [Compound 23, N-(2-(2,6-dioxopiperidin-3-yl)-3-oxoisoindolin-5-yl)-4-fluorobenzenesulfonamide], for which, at 6×His-CRBN-DDB1 protein, the concentration for half-maximal inhibition (IC50) was under 1000 nM. Regarding `Cc1ccc(S(=O)(=O)Nc2ccc3c(c2)C(=O)N(C2CCC(=O)NC2=O)C3=O)cc1C` (centres unmarked) [Compound 93, N-(2-(2,6-dioxopiperidin-3-yl)-1,3-dioxoisoindolin-5-yl)-3,4-dimethylbenzenesulfonamide], the IC50 on 6×His-CRBN-DDB1 protein was under 1000 nM. Regarding `O=C1CCC(N2C(=O)c3ccc(NS(=O)(=O)c4ccco4)cc3C2=O)C(=O)N1` (centres unmarked) [Compound 91, N-(2-(2,6-dioxopiperidin-3-yl)-1,3-dioxoisoindolin-5-yl)furan-2-sulfonamide], the IC50 on 6×His-CRBN-DDB1 protein was under 1000 nM. As to `O=C1CCC(N2Cc3ccc(NS(=O)(=O)c4ccccc4)cc3C2=O)C(=O)N1` (centres unmarked) [Compound 22, N-(2-(2,6-dioxopiperidin-3-yl)-3-oxoisoindolin-5-yl)benzenesulfonamide], the IC50 at 6×His-CRBN-DDB1 protein is under 1000 nM.

In the case of `O=C1CCC(N2Cc3ccc(NS(=O)(=O)c4ccc(C(F)(F)F)cc4)cc3C2=O)C(=O)N1` (centres unmarked) [Compound 26, N-(2-(2,6-dioxopiperidin-3-yl)-3-oxoisoindolin-5-yl)-4-(trifluoromethyl)benzenesulfonamide], the IC50 at 6×His-CRBN-DDB1 protein is under 1000 nM. Turning to `O=C1CCC(N2Cc3cc(NS(=O)(=O)c4ccccc4C(F)(F)F)ccc3C2=O)C(=O)N1` (centres unmarked) [Compound 44, N-(2-(2,6-dioxopiperidin-3-yl)-1-oxoisoindolin-5-yl)-2-(trifluoromethyl)benzenesulfonamide], the IC50 on 6×His-CRBN-DDB1 protein is under 1000 nM. The same measure, in the same setting: the result for `Cc1ccc(S(=O)(=O)Nc2ccc3c(c2)CN(C2CCC(=O)NC2=O)C3=O)cc1Cl` (centres unmarked) [Compound 52, 3-chloro-N-(2-(2,6-dioxopiperidin-3-yl)-1-oxoisoindolin-5-yl)-4-methylbenzenesulfonamide] reads under 1000 nM; that for `O=C1CCC(N2Cc3cc(NS(=O)(=O)c4ccccc4)ccc3C2=O)C(=O)N1` (centres unmarked) [Compound 38, N-(2-(2,6-dioxopiperidin-3-yl)-1-oxoisoindolin-5-yl)benzenesulfonamide], 1000 to 10000 nM.

Consider `O=C1CCC(N2Cc3cc(NS(=O)(=O)c4cccc(C(F)(F)F)c4)ccc3C2=O)C(=O)N1` (centres unmarked) [Compound 50, N-(2-(2,6-dioxopiperidin-3-yl)-1-oxoisoindolin-5-yl)-3-(trifluoromethyl)benzenesulfonamide], for which the IC50 on 6×His-CRBN-DDB1 protein is under 1000 nM. `O=C1CCC(N2Cc3ccc(NS(=O)(=O)c4ccccc4C(F)(F)F)cc3C2=O)C(=O)N1` (centres unmarked) [Compound 28, N-(2-(2,6-dioxopiperidin-3-yl)-3-oxoisoindolin-5-yl)-2-(trifluoromethyl)benzenesulfonamide]: the IC50 on 6×His-CRBN-DDB1 protein is under 1000 nM.

The record behind these values is patent publication US20240132463A1, “SUBSTITUTED N-(2-(2,6-DIOXOPIPERIDIN-3-YL)-1,3-DIOXOISOINDOLIN-5-YL)ARYLSULFONAMIDE ANALOGS AS MODULATORS OF CEREBLON PROTEIN” (ST. JUDE CHILDREN'S RESEARCH HOSPITAL, INC., priority 2020, published 2024).
